Laboratory results published in patent US20230278954A1, “BRANCHED LIPID COMPOUDS” (priority 2020, published 2023).
“And” between values parts separate entries of the source, which are not always exact repeats. Equal values may be shown once.

Key:
[1] = target: T1, human TLR2 (Homo sapiens, UniProt O60603); test: Activation of human TLR2 III: HEK-Blue hTLR2 dose response (SEAP reporter); format: cell-based; details: for optical density (650 nm): screenings 1-3; for stimulatory / agonist activity for hTLR2 (in words) / fold induction at 120 fg/mL / fold induction at 490 fg/mL / fold induction at 1.95 pg/mL / fold induction at 7.81 pg/mL / fold induction at 31.25 pg/mL / fold induction at 0.000125 µg/mL / fold induction at 0.0005 µg/mL: HEK-Blue hTLR2; for fold induction at 120 fg/mL / fold induction at 490 fg/mL / fold induction at 1.95 pg/mL / fold induction at 7.81 pg/mL / fold induction at 31.25 pg/mL / fold induction at 0.000125 µg/mL / fold induction at 0.0005 µg/mL: read-out: Fold Induction (ratio of average induced value to average non-induced value); for EC50: agonism of hTLR2, HEK-Blue hTLR2
T1 construct: expressed in transfected cells; host or cells: HEK-Blue hTLR2 cells
Experimental: Toll-Like Receptor (TLR) stimulation is tested by assessing NF-KB activation in the TLR expressing cell lines. HEK-Blue h/mTLR2 cells have been stably transfected with human or mouse TLR2 and CD14. The activity of the test articles are tested on human and mouse TLR2, as potential agonists. The test articles are evaluated at seven concentrations and compared to control ligands (see list below). These steps are performed in triplicate.
A 5 µg/mL working stock was then prepared for each compound from the 20 µg/mL dilution in sterile PBS. Starting from the 5 µg/mL working stock, a series of six 1:4 serial dilutions were made by mixing 100 µL of the previous highest dilution with 300 µL sterile PBS.
The secreted embryonic alkaline phosphatase (SEAP) reporter is under the control of a promoter inducible by the transcription factor NF-κB. This reporter gene allows the monitoring of signaling through the TLR, based on the activation of NF-κB. In a 96-well plate (200 µL total volume) containing the appropriate cells (50,000 - 75,000 cells/well), 20 µL of the test article or the positive control ligand (HKLC) is added to the wells. The media added to the wells is designed for the detection of NF-κB induced SEAP expression. After a 16-24-hour incubation the optical density (OD) is read at 650 nm on a Molecular Devices SpectraMax 340PC absorbance detector.

[2] = target: T1, human TLR2; test: Activation of human TLR2 IV: HEK-BLUE-hTLR2 assay; format: cell-based; details: HEK-BLUE-hTLR2 cells, FIG. 4
Experimental: HEK-BLUE-hTLR2 cells are designed for studying the stimulation of human TLR2 (hTLR2) by monitoring the activation of NF-kB. HEK-BLUE-hTLR2 cells are obtained by co-transfection of the hTLR2 and SEAP (secreted embryonic alkaline phosphatase) reporter genes into HEK293 cells. Stimulation with a TLR2 ligand activates NF-kB which induces the production of SEAP. HEK-BLUE-hTLR2 cells were purchased from InvivoGen (San Diego, CA, USA). […] xii) Add immediately […] of the cell suspension per well of the plate which contains the solution of the compounds. The plate is then returned to the incubator at 37° C. for 16 hr and was read at 620 nm by using an ELISA reader.

[3] = Stability III: accelerated aging at 40° C., 3 or 6 weeks, HPLC recovery; format: physicochemical
Experimental: Recovery of the target compound was assessed by HPLC, and the values as a percentage of the reference sample are reported in Table 14 and in FIG. 5.

T1 sequence (O60603 21-784): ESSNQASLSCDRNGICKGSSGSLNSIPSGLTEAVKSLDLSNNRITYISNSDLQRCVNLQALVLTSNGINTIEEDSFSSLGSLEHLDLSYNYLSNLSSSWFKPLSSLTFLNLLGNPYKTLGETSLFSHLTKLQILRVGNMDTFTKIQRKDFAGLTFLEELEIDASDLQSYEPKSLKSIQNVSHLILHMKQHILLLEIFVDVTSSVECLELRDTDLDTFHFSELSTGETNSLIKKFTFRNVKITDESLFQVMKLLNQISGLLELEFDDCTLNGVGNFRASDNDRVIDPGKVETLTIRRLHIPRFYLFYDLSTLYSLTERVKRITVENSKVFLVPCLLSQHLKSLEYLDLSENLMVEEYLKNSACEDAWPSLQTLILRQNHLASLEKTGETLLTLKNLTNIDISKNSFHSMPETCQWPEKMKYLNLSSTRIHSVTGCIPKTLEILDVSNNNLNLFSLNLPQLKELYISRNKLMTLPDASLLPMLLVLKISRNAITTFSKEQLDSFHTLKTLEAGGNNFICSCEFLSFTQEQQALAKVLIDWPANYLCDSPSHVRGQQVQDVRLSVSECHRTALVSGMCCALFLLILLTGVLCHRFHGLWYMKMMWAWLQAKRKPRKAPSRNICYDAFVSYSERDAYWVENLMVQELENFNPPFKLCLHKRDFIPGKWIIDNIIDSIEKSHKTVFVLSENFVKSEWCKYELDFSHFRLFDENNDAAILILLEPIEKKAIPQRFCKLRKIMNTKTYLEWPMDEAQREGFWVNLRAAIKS
T1 sequence (Q9Y2C9 32-796 partner): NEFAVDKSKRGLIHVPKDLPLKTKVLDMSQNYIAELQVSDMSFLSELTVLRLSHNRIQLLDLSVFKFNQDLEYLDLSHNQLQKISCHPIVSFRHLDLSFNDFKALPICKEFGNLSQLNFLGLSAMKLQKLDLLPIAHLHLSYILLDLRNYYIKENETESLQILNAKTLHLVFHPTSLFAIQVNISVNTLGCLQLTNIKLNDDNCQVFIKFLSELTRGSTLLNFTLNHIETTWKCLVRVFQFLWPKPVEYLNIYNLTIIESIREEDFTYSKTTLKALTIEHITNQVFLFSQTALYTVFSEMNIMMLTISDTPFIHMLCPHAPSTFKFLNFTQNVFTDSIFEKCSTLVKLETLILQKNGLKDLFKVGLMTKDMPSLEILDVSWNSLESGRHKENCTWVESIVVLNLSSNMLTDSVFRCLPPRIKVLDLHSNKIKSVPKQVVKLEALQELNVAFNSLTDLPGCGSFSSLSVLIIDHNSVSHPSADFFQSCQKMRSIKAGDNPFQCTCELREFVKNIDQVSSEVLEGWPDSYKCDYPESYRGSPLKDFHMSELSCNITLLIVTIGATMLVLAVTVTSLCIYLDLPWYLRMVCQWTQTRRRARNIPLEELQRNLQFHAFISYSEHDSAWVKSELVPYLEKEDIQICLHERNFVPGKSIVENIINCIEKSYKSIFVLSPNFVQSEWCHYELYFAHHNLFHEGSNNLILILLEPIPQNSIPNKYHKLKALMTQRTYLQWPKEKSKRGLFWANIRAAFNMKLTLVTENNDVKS

| Average optical density (650 nm) ([1]; 0.12 pg/mL) | optical density (650 nm) ([1]; 0.12 pg/mL) | Average optical density (650 nm) ([1]; 0.49 pg/mL) | optical density (650 nm) ([1]; 0.49 pg/mL) | Average optical density (650 nm) ([1]; 1.95 pg/mL) | optical density (650 nm) ([1]; 1.95 pg/mL) | Average optical density (650 nm) ([1]; 7.81 pg/mL) | optical density (650 nm) ([1]; 7.81 pg/mL) | Average optical density (650 nm) ([1]; 31.25 pg/mL) | optical density (650 nm) ([1]; 31.25 pg/mL) | Average optical density (650 nm) ([1]; 125 pg/mL) | optical density (650 nm) ([1]; 125 pg/mL) | Average optical density (650 nm) ([1]; 500 pg/mL) | optical density (650 nm) ([1]; 500 pg/mL) | stimulatory / agonist activity for hTLR2 (in words) [1] | fold induction at 120 fg/mL ([1]; 0.12 pg/mL) | fold induction at 490 fg/mL ([1]; 0.49 pg/mL) | fold induction at 1.95 pg/mL ([1]; 1.95 pg/mL) | fold induction at 7.81 pg/mL ([1]; 7.81 pg/mL) | fold induction at 31.25 pg/mL ([1]; 31.25 pg/mL) | Structure (SMILES) | also measured |
| --- | --- | --- | --- | --- | --- | --- | --- | --- | --- | --- | --- | --- | --- | --- | --- | --- | --- | --- | --- | --- | --- |
| 0.740 | 0.653 and 0.759 and 0.809 | 1.479 | 1.409 and 1.507 and 1.521 | 1.823 | 1.795 and 1.757 and 1.916 | 2.260 | 2.288 and 2.168 and 2.323 | 2.481 | 2.440 and 2.485 and 2.518 | 2.521 | 2.569 and 2.508 and 2.487 | 2.611 | 2.717 and 2.590 and 2.526 | stimulatory activity | 10.3 | 20.5 | 25.3 | 31.4 | 34.5 | CCCCCCCCCCCCCCC(C)C(=O)OC[C@H](CSC[C@H](N)C(=O)N[C@@H](CO)C(=O)NCCOCCOCCOCCOCCOCCOCCOCCOCCOCCOCCOCCOCCOCCOCCOCCOCCOCCOCCOCCOCCOCCOCCOCCOCCOCCOCCOCCOCCC(=O)NCC(N)=O)OC(=O)C(C)CCCCCCCCCCCCCC (stereo partly drawn) [Compound B4] | fold induction at 0.000125 µg/mL ([1]; 125 pg/mL): 35; fold induction at 0.0005 µg/mL ([1]; 500 pg/mL): 36.3; EC50 [1]: 0.214 nM |
| 1.362 | 1.443 and 1.313 and 1.329 | 1.860 | 1.892 and 1.785 and 1.902 | 2.045 | 2.149 and 2.008 and 1.979 | 2.411 | 2.420 and 2.446 and 2.366 | 2.457 | 2.492 and 2.500 and 2.380 | 2.568 | 2.608 and 2.541 and 2.555 | 2.471 | 2.584 and 2.404 and 2.426 | stimulatory activity | 18.7 | 25.5 | 28 | 33 | 33.7 | CCCCCCCCCCCCCCC(C)C(=O)OCC[C@H](CSC[C@H](N)C(=O)N[C@@H](CO)C(=O)NCCOCCOCCOCCOCCOCCOCCOCCOCCOCCOCCOCCOCCOCCOCCOCCOCCOCCOCCOCCOCCOCCOCCOCCOCCOCCOCCOCCOCCC(=O)NCC(N)=O)OC(=O)C(C)CCCCCCCCCCCCCC (stereo partly drawn) [Compound B12] | fold induction at 0.000125 µg/mL ([1]; 125 pg/mL): 35.2; fold induction at 0.0005 µg/mL ([1]; 500 pg/mL): 33.9; EC50 [1]: 0.0509 nM; activity at TLR2 (in words) [2]: significant activity; stability under accelerated storage conditions (in words) [3]: excellent stabilities |
